Values of other authors as cited in patent US8735408B2, “Solid forms of 3-(4-(aminomethyl)-1-(5-methyl-7H-pyrrolo[2,3-d]pyrimidin-4-yl)piperidine-4-carboxamido)phenyl dimethylcarbamate” (Lexicon Pharmaceuticals, Inc., priority 2010, dated 2014).

Details: models of ophthalmic disease; see US-2009-0264450-A1

Cc1c[nH]c2ncnc(N3CCC(CN)(C(=O)Nc4cccc(OC(=O)N(C)C)c4)CC3)c12 [3-(4-(aminomethyl)-1-(5-methyl-7H-pyrrolo[2,3-d]pyrimidin-4-yl)piperidine-4-carboxamido)phenyl dimethylcarbamate]
effect on intraocular pressure: decrease intraocular pressure
